Laboratory results as given in the supplement of paper PMC5844555.

Tests used:
Test in all cases: 3' UTR reporter interaction score (median-centred robust z-score of log2 firefly/Renilla activity); higher = less repression of the 3' UTR reporter
Details in all cases: HEK293T; 48 h
[1] = tested on: BRCA2
Method in brief: (§1)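 HEK293T cells (10,000/well, 96-well plates) were co-transfected using DharmaFECT Duo with 100 ng firefly luc2P reporter carrying the gene's 3' UTR, 20 ng Renilla pRL-TK control and 2.5 pmol miRNA mimic. Dual-luciferase activities were read 48 h post-transfection. The interaction score is the log-transformed firefly/Renilla ratio as a per-plate robust z-score (median, median absolute deviation), median-centred per miRNA and averaged over at least two independent screens; more negative indicates interaction.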

[2] = tested on: EZH2
Method in brief: as §1

[3] = tested on: FBXW7
Method in brief: as §1

[4] = tested on: HRAS
Method in brief: as §1

[5] = tested on: MYB
Method in brief: as §1

[6] = tested on: MYCN
Method in brief: as §1

[7] = tested on: MYC
Method in brief: as §1

[8] = tested on: MYT1L
Method in brief: as §1

[9] = tested on: NOTCH1
Method in brief: as §1

[10] = tested on: PHF6
Method in brief: as §1

[11] = tested on: PHOX2B
Method in brief: as §1

[12] = tested on: RB1
Method in brief: as §1

[13] = tested on: TP53
Method in brief: as §1

[14] = tested on: ZEB2
Method in brief: as §1

Sequence | 3' UTR reporter interaction score [1] | 3' UTR reporter interaction score [2] | 3' UTR reporter interaction score [3] | 3' UTR reporter interaction score [4] | 3' UTR reporter interaction score [5] | 3' UTR reporter interaction score [6] | 3' UTR reporter interaction score [7] | 3' UTR reporter interaction score [8] | 3' UTR reporter interaction score [9] | 3' UTR reporter interaction score [10] | 3' UTR reporter interaction score [11] | 3' UTR reporter interaction score [12] | 3' UTR reporter interaction score [13] | 3' UTR reporter interaction score [14]
AGGUUACCCGAGCAACUUUGCA | -1.98 | -1.68 | -1.16 | -1.62 | 1.71 | 0.0957 | -0.29 | 2.75 | 0.652 | 0.436 | 2.07 | 2.97 | -1.44 | 0.562
AGGUUGACAUACGUUUCCC | -0.754 | -0.54 | -0.16 | -1.43 | 0.862 | -0.377 | -0.726 | 0.798 | 1.09 | 0.251 | 0.494 | 0.54 | -0.178 | 1.11
AGUAUGUUCUUCCAGGACAGAAC | -2.15 | 0.482 | 0.574 | 0.113 | 0.712 | -0.169 | 0.576 | -0.575 | -0.607 | -0.447 | -1.01 | 0.243 | 0.258 | 0.181
AGUAUUCUGUACCAGGGAAGGU | 0.623 | -2.56 | 1.75 | -0.0345 | -0.25 | 0.786 | 0.255 | -1.07 | 0.758 | -1.2 | 0.0656 | -0.386 | 0.107 | -1.77
AGUGACAUCACAUAUACGGCAGC | -1.13 | -0.788 | -1.31 | -0.649 | 0.233 | 0.321 | -0.366 | 0.969 | 0.273 | 0.28 | 0.805 | 0.945 | -0.15 | 1.55
